According to patent US8168654B2 (priority 2003, dated 2012):
Counter-ions that a name gives are not always drawn.

target: T1, human muscarinic acetylcholine M3 receptor (Homo sapiens, UniProt P20309); assay: biochemical; type: binding
T1 construct: expressed in transfected cells; host or cells: CHO cells, stably transfected; membranes
T1 sequence (P20309 whole entry): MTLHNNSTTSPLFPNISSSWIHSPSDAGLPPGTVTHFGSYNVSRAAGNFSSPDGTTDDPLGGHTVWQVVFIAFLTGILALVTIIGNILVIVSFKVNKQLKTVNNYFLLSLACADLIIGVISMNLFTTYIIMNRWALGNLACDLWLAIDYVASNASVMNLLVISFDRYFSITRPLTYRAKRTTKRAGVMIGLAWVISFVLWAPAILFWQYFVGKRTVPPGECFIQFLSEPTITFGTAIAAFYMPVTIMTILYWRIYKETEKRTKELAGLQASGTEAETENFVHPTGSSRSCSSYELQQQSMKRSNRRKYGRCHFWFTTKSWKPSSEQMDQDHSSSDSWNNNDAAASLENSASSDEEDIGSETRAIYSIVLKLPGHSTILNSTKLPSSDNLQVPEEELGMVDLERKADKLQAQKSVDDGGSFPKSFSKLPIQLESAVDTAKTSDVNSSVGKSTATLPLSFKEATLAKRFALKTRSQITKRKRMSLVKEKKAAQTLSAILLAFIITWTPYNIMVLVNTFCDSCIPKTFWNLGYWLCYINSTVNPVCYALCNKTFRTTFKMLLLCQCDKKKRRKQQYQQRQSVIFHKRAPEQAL

Structure (SMILES)	Ki [nM]
O=C(Cc1ccccc1)NCCC[N+]12CCC(CC1)[C@@H](OC(=O)C(O)(c1ccccc1)c1ccccc1)C2 [Example 34, (R)-3-(2-Hydroxy-2,2-diphenyl-acetoxy)-1-(3-phenylacetylamino-propyl)-1-azonia-bicyclo[2.2.2]octane trifluoroacetate]	2.3
O=C(C[N+]12CCC(CC1)[C@@H](OC(=O)C(O)(c1ccccc1)c1ccccc1)C2)Nc1ccccc1 [Example 52, (R)-3-(2-Hydroxy-2,2-diphenyl-acetoxy)-1-phenylcarbamoylmethyl-1-azonia-bicyclo[2.2.2]octane]	1.9
O=C(C[N+]12CCC(CC1)[C@@H](OC(=O)C(O)(c1cccs1)c1cccs1)C2)Nc1ccccc1 [Example 76, (R)-3-(2-Hydroxy-2,2-di-thiophen-2-yl-acetoxy)-1-phenylcarbamoylmethyl-1-azonia-bicyclo[2.2.2]octane trifluoroacetate]	1.1
O=C(C[N+]12CCC(CC1)[C@@H](OC(=O)C(O)(c1ccccc1)c1ccccc1)C2)NCCc1cccs1 [Example 96, (R)-3-(2-Hydroxy-2,2-diphenyl-acetoxy)-1-[(2-thiophen-2-yl-ethylcarbamoyl)-methyl]-1-azonia-bicyclo[2.2.2]octane trifluoroacetate]	4.6
O=C(NCC[N+]12CCC(CC1)[C@@H](OC(=O)C(O)(c1ccccc1)c1ccccc1)C2)c1cnccn1 [Example 138, (R)-3-(2-Hydroxy-2,2-diphenyl-acetoxy)-1-(2-[{pyrazine-2-carbonyl)-amino]-ethyl}-1-azonia-bicyclo[2.2.2]octane trifluoroacetate]	2.2
O=C(C[N+]12CCC(CC1)[C@@H](OC(=O)C(O)(c1cccs1)c1cccs1)C2)Nc1cnccn1 [Example 159, (R)-3-(2-Hydroxy-2,2-di-thiophen-2-yl-acetoxy)-1-(pyrazin-2-ylcarbamoylmethyl)-1-azonia-bicyclo[2.2.2]octane bromide]	0.7
O=C(NCC[N+]12CCC(CC1)[C@@H](OC(=O)C(O)(c1ccccc1)c1ccccc1)C2)C1(O)CC1 [Example 221, (R)-1-[2-[(1-Hydroxy-cyclo-propanecarbonyl)-amino]-ethyl]-3-(2-hydroxy-2,2-diphenyl-acetoxy)-1-azonia-bicyclo[2.2.2]-octane hexafluorophosphate]	1.3
O=C(C[N+]12CCC(CC1)[C@@H](OC(=O)C(O)(c1ccccc1)c1ccccc1)C2)Nc1ccon1 [Example 242, (R)-3-(2-Hydroxy-2,2-diphenyl-acetoxy)-1-(isoxazol-3ylcarbamoylmethyl)-1-azonia-bicyclo[2.2.2]octane bromide]	0.3
O=C(C[N+]12CCC(CC1)[C@@H](OC(=O)C(O)(c1cccs1)c1cccs1)C2)Nc1ccncn1 [Example 244, (R)-3-(2-Hydroxy-2,2-di-thiophen-2-yl-acetoxy)-1-(pyrimidin-4-ylcarbamoylmethyl)-1-azonia-bicyclo[2.2.2]octane bromide]	0.3
